Measured values as given in US4255183A, “Substituted phenyl urea and herbicides for use in paddy field” (Hokko Chemical Industry Co., Ltd., priority 1977, dated 1981).
Like-named read-outs stand apart in the source and are kept apart here.

Legend:
[1] = test system: Echinochloa crus-galli var. oryzicola; assay: Test Example 2: concrete pot test on killing effect, Echinochloa crus-galli var. oryzicola; assay type: in vivo; details: Echinochloa crus-galli, 720 h; for inhibition at 9000 g/ha: 900 g/10 are
Method: (§1) In a Wagner pot of 1/500 are, paddy field soil (alluvial soil) was placed and 50 seeds of Echinochloa crus-galli var. oryzicola and 30 seeds of paddy rice were seeded in the surface layer of said soil and the submerging depth was kept at about 1 cm. When Echinochloa crus-galli var. oryzicola reached at the one leaf stage and 5-leaf stage, the emulsion of a predetermined concentration, prepared according to Example 4 was added dropwise. After 30 days from the treatment with the chemical, dry weights of Echinochloa crus-galli var. oryzicola and paddy rice were measured and the inhibition rate was calculated with reference to untreated area. [formula]
(§2) In a concrete pot of 1/400 are (50 cm×50 cm), paddy field soil (alluvial soil) was placed and 200 seeds of Echinochloa crus-galli var. oryzicola were seeded in 10 surface layer of said soil and the soil was submerged at about 3 cm depth. Before emergence of Echinochloa crus-galli var. oryzicola, paddy rice at 2.5-leaf stage (Asahi species) was transplanted at the rate of 8 stubs per pot, planting 3 seedlings per stub. At the one-leaf stage (3.5 leaves stage of paddy rice) and 5 leaves stage (7 leaves stage of paddy rice) of Echinochloa crus-galli var. oryzicola, the granule prepared according to Example 1 was applied. […] 30 Days after the treatment with the chemical, examination was made in the similar manner as Test Example 1 to obtain results as shown in Table 2.
(§3) In the table, as the comparative chemicals CPN, Benthiocarb, Molinate and Simetryne, those commercially available were used and the comparative chemicals A and B (as mentioned before) used were prepared according to the process for preparing the compound of this invention.

[2] = test system: paddy rice; assay: whole plant or invertebrate; assay type: in vivo, paddy rice (Asahi species); details: Oryza sativa, 720 h; for inhibition at 9000 g/ha: 900 g/10 are
Method: as §1, §2, §3

[3] = test system: paddy rice; assay: Test Example 1: pot test on selectivity, inhibition of paddy rice; assay type: in vivo; details: dry weight 30 days after treatment
Method: as §1, with “When Echinochloa crus-galli var. oryzicola reached at the one leaf stage and 5-leaf stage, the emulsion of a predetermined concentration, prepared according to Example 4 was added dropwise.” left out
(§4) The comparative chemicals used, i.e. DCMU and Linuron, were those commercially available, and the comparative chemicals A and B used were prepared according to the process for formulating the compound of this invention.

[4] = test system: Echinochloa crus-galli var. oryzicola; assay: Test Example 1: pot test on selectivity, inhibition of Echinochloa crus-galli var. oryzicola; assay type: in vivo; details: dry weight 30 days after treatment; for inhibition at 750 g/ha / inhibition at 1500 g/ha / inhibition at 3000 g/ha / inhibition at 6000 g/ha / inhibition at 9000 g/ha: Echinochloa crus-galli, 720 h
Method: as §1, §4

[5] = read-out: Inhibition (%) by treatment at 1-leaf stage of E. crus-galli var. oryzicola, E. crus-galli var. oryzicola
[6] = read-out: Inhibition (%) by treatment at 5-leaf stage of E. crus-galli var. oryzicola, E. crus-galli var. oryzicola
[7] = read-out: Inhibition (%) by treatment at 1-leaf stage of E. crus-galli var. oryzicola, paddy rice
[8] = read-out: Inhibition (%) by treatment at 5-leaf stage of E. crus-galli var. oryzicola, paddy rice

CCNc1nc(NCC)nc(SC)n1 [Simetryne, 2,4-bis(ethylamino)-6-methylthio-1,3,5-triazine]
inhibition at 300 g/ha [1, 5]: 20%
inhibition at 1000 g/ha [1, 5]: 100%
inhibition at 3000 g/ha [1, 5]: 100%
inhibition at 300 g/ha [1, 6]: 0%
inhibition at 1000 g/ha [1, 6]: 7%
inhibition at 3000 g/ha [1, 6]: 36%
inhibition at 300 g/ha [2, 7]: 0%
inhibition at 1000 g/ha [2, 7]: 74%
inhibition at 3000 g/ha [2, 7]: 100%
inhibition at 300 g/ha [2, 8]: 0%
inhibition at 1000 g/ha [2, 8]: 17%
inhibition at 3000 g/ha [2, 8]: 46%

O=[N+]([O-])c1ccc(Oc2c(Cl)cc(Cl)cc2Cl)cc1 [CNP, 2,4,6-trichlorophenyl-4'-nitrophenylether]
inhibition at 1000 g/ha ([1]; 100 g/10 are, granule, 30 days after treatment, read-out: Inhibition (%) by treatment at 1-leaf stage of E. crus-galli var. oryzicola, E. crus-galli var. oryzicola): 65%
inhibition at 1000 g/ha ([1]; 100 g/10 are, granule, 30 days after treatment, read-out: Inhibition (%) by treatment at 5-leaf stage of E. crus-galli var. oryzicola, E. crus-galli var. oryzicola): 0%
inhibition at 3000 g/ha ([1]; 300 g/10 are, granule, 30 days after treatment, read-out: Inhibition (%) by treatment at 1-leaf stage of E. crus-galli var. oryzicola, E. crus-galli var. oryzicola): 100%
inhibition at 3000 g/ha ([1]; 300 g/10 are, granule, 30 days after treatment, read-out: Inhibition (%) by treatment at 5-leaf stage of E. crus-galli var. oryzicola, E. crus-galli var. oryzicola): 0%
inhibition at 9000 g/ha ([1]; granule, 30 days after treatment, read-out: Inhibition (%) by treatment at 1-leaf stage of E. crus-galli var. oryzicola, E. crus-galli var. oryzicola): 100%
inhibition at 9000 g/ha ([1]; granule, 30 days after treatment, read-out: Inhibition (%) by treatment at 5-leaf stage of E. crus-galli var. oryzicola, E. crus-galli var. oryzicola): 0%
inhibition at 1000 g/ha ([2]; 100 g/10 are, granule, rice at 3.5 leaves stage, 30 days, read-out: Inhibition (%) by treatment at 1-leaf stage of E. crus-galli var. oryzicola, paddy rice): 0%
inhibition at 1000 g/ha ([2]; 100 g/10 are, granule, rice at 7 leaves stage, 30 days, read-out: Inhibition (%) by treatment at 5-leaf stage of E. crus-galli var. oryzicola, paddy rice): 0%
inhibition at 3000 g/ha ([2]; 300 g/10 are, granule, rice at 3.5 leaves stage, 30 days, read-out: Inhibition (%) by treatment at 1-leaf stage of E. crus-galli var. oryzicola, paddy rice): 8%
inhibition at 3000 g/ha ([2]; 300 g/10 are, granule, rice at 7 leaves stage, 30 days, read-out: Inhibition (%) by treatment at 5-leaf stage of E. crus-galli var. oryzicola, paddy rice): 0%
inhibition at 9000 g/ha ([2]; granule, rice at 3.5 leaves stage, 30 days, read-out: Inhibition (%) by treatment at 1-leaf stage of E. crus-galli var. oryzicola, paddy rice): 52%
inhibition at 9000 g/ha ([2]; granule, rice at 7 leaves stage, 30 days, read-out: Inhibition (%) by treatment at 5-leaf stage of E. crus-galli var. oryzicola, paddy rice): 0%

CC=CCOc1ccc(NC(=O)N(C)C)cc1 [Mixture of trans- and cis-forms 4:1]
Inhibition (%) by treatment at 1-leaf stage, paddy rice ([3]; 900 g/10 are, 1-leaf stage): 1%
inhibition at 750 g/ha ([3]; Oryza sativa, 720 h, 75 g/10 are, 1-leaf stage, read-out: Inhibition (%) by treatment at 1-leaf stage, paddy rice): 0%
inhibition at 750 g/ha ([3]; Oryza sativa, 720 h, 75 g/10 are, 5-leaf stage, read-out: Inhibition (%) by treatment at 5-leaf stage, paddy rice): 0%
inhibition at 1500 g/ha ([3]; Oryza sativa, 720 h, 150 g/10 are, 1-leaf stage, read-out: Inhibition (%) by treatment at 1-leaf stage, paddy rice): 0%
inhibition at 1500 g/ha ([3]; Oryza sativa, 720 h, 150 g/10 are, 5-leaf stage, read-out: Inhibition (%) by treatment at 5-leaf stage, paddy rice): 0%
inhibition at 3000 g/ha ([3]; Oryza sativa, 720 h, 300 g/10 are, 1-leaf stage, read-out: Inhibition (%) by treatment at 1-leaf stage, paddy rice): 0%
inhibition at 3000 g/ha ([3]; Oryza sativa, 720 h, 300 g/10 are, 5-leaf stage, read-out: Inhibition (%) by treatment at 5-leaf stage, paddy rice): 0%
inhibition at 6000 g/ha ([3]; Oryza sativa, 720 h, 600 g/10 are, 1-leaf stage, read-out: Inhibition (%) by treatment at 1-leaf stage, paddy rice): 0%
inhibition at 6000 g/ha ([3]; Oryza sativa, 720 h, 600 g/10 are, 5-leaf stage, read-out: Inhibition (%) by treatment at 5-leaf stage, paddy rice): 0%
inhibition at 9000 g/ha ([3]; Oryza sativa, 720 h, 900 g/10 are, 5-leaf stage, read-out: Inhibition (%) by treatment at 5-leaf stage, paddy rice): 0%
inhibition at 750 g/ha ([4]; 75 g/10 are, 1-leaf stage, read-out: Inhibition (%) by treatment at 1-leaf stage, E. crus-galli var. oryzicola): 94%
inhibition at 750 g/ha ([4]; 75 g/10 are, 5-leaf stage, read-out: Inhibition (%) by treatment at 5-leaf stage, E. crus-galli var. oryzicola): 80%
inhibition at 1500 g/ha ([4]; 150 g/10 are, 1-leaf stage, read-out: Inhibition (%) by treatment at 1-leaf stage, E. crus-galli var. oryzicola): 100%
inhibition at 1500 g/ha ([4]; 150 g/10 are, 5-leaf stage, read-out: Inhibition (%) by treatment at 5-leaf stage, E. crus-galli var. oryzicola): 100%
inhibition at 3000 g/ha ([4]; 300 g/10 are, 1-leaf stage, read-out: Inhibition (%) by treatment at 1-leaf stage, E. crus-galli var. oryzicola): 100%
inhibition at 3000 g/ha ([4]; 300 g/10 are, 5-leaf stage, read-out: Inhibition (%) by treatment at 5-leaf stage, E. crus-galli var. oryzicola): 100%
inhibition at 6000 g/ha ([4]; 600 g/10 are, 1-leaf stage, read-out: Inhibition (%) by treatment at 1-leaf stage, E. crus-galli var. oryzicola): 100%
inhibition at 6000 g/ha ([4]; 600 g/10 are, 5-leaf stage, read-out: Inhibition (%) by treatment at 5-leaf stage, E. crus-galli var. oryzicola): 100%
inhibition at 9000 g/ha ([4]; 900 g/10 are, 1-leaf stage, read-out: Inhibition (%) by treatment at 1-leaf stage, E. crus-galli var. oryzicola): 100%
inhibition at 9000 g/ha ([4]; 900 g/10 are, 5-leaf stage, read-out: Inhibition (%) by treatment at 5-leaf stage, E. crus-galli var. oryzicola): 100%

CC=CCOc1ccc(NC(=O)N(C)C)cc1 [Mixture of trans- and cis-forms 1:4]
Inhibition (%) by treatment at 1-leaf stage, paddy rice ([3]; 75 g/10 are, 1-leaf stage): 0%
Inhibition (%) by treatment at 5-leaf stage, paddy rice ([3]; 75 g/10 are, 5-leaf stage): 0%
Inhibition (%) by treatment at 1-leaf stage, paddy rice ([3]; 150 g/10 are, 1-leaf stage): 0%
Inhibition (%) by treatment at 5-leaf stage, paddy rice ([3]; 150 g/10 are, 5-leaf stage): 0%
Inhibition (%) by treatment at 1-leaf stage, paddy rice ([3]; 300 g/10 are, 1-leaf stage): 0%
Inhibition (%) by treatment at 5-leaf stage, paddy rice ([3]; 300 g/10 are, 5-leaf stage): 0%
Inhibition (%) by treatment at 1-leaf stage, paddy rice ([3]; 600 g/10 are, 1-leaf stage): 0%
Inhibition (%) by treatment at 5-leaf stage, paddy rice ([3]; 600 g/10 are, 5-leaf stage): 0%
Inhibition (%) by treatment at 1-leaf stage, paddy rice ([3]; 900 g/10 are, 1-leaf stage): 4%
Inhibition (%) by treatment at 5-leaf stage, paddy rice ([3]; 900 g/10 are, 5-leaf stage): 0%
Inhibition (%) by treatment at 1-leaf stage, E. crus-galli var. oryzicola ([4]; 75 g/10 are, 1-leaf stage): 93%
Inhibition (%) by treatment at 5-leaf stage, E. crus-galli var. oryzicola ([4]; 75 g/10 are, 5-leaf stage): 84%
Inhibition (%) by treatment at 1-leaf stage, E. crus-galli var. oryzicola ([4]; 150 g/10 are, 1-leaf stage): 100%
Inhibition (%) by treatment at 5-leaf stage, E. crus-galli var. oryzicola ([4]; 150 g/10 are, 5-leaf stage): 100%
Inhibition (%) by treatment at 1-leaf stage, E. crus-galli var. oryzicola ([4]; 300 g/10 are, 1-leaf stage): 100%
Inhibition (%) by treatment at 5-leaf stage, E. crus-galli var. oryzicola ([4]; 300 g/10 are, 5-leaf stage): 100%
Inhibition (%) by treatment at 1-leaf stage, E. crus-galli var. oryzicola ([4]; 600 g/10 are, 1-leaf stage): 100%
Inhibition (%) by treatment at 5-leaf stage, E. crus-galli var. oryzicola ([4]; 600 g/10 are, 5-leaf stage): 100%
Inhibition (%) by treatment at 1-leaf stage, E. crus-galli var. oryzicola ([4]; 900 g/10 are, 1-leaf stage): 100%
Inhibition (%) by treatment at 5-leaf stage, E. crus-galli var. oryzicola ([4]; 900 g/10 are, 5-leaf stage): 100%
